Measured values from patent publication US11357850B2, “Methods for treating breast cancer using INOS-inhibitory compositions” (The Methodist Hospital, priority 2014, dated 2022).

Columns and labels:
[1] = test system: HCC-70; assay: PD-L1 expression in TNBC cell line; type: cell-based, human
[2] = cited from earlier work
[3] = cited from earlier work; remark: listed apart in the source
[4] = test system: MDA-MB-231; assay: Cell proliferation assay (WST-1), iNOS inhibitors; type: cell-based, human; conditions: highest concentration (4 mM), 96 hrs
Description: (§1) Cell Culture. Mesenchymal-like triple negative breast cancer cell lines, MDA-MB-231 and SUM159, were purchased from American Type Culture Collection and Asterand, respectively. […] Mammosphere forming efficiency (MSFE), cell proliferation and migration assays are detailed below. Cell culture and mammosphere forming efficiency assay. […] For mammosphere-forming efficiency (MSFE) assay, 2,000 (SUM159) and 5,000 (MDA-MB-231) cells/well were cultured in 0.5% methylcellulose (MethoCult H4100, StemCell Technologies) and MammoCult basal medium supplemented with 10% MammoCult proliferation supplement, 4 μg/mL heparin and 0.48 μg/mL hydrocortisone (StemCell Technologies, Vancouver, BC, CANADA). […] Primary MSFE was evaluated dividing mammosphere number by cell number. After trypsinization of primary MS, single cells were grown in 0.5% methylcellulose and mammosphere medium (as described above) in absence of treatment. Secondary MS were scanned, counted and secondary MSFE were assessed. For the mouse model of lung metastasis, MDA-MB-231 cells were transfected with a luciferase/GFP-based dual-reporter plasmid and stable clones (MDA-MB-231 L/G) selected with 1 mg/mL blasticidin (InvivoGen, San Diego, Calif., USA). […] Proliferation rate was determined by adding premixed WST-1 reagent (Clontech). After incubation at 37° C. for 3 hrs, absorbance was read at 450 nm (reference wavelength 690 nm).

[5] = test system: SUM159; assay: Cell proliferation assay (WST-1), iNOS inhibitors; type: cell-based, human; conditions: highest concentration (4 mM), 96 hrs
Description: as §1

[6] = test system: MDA-MB-231; assay: Cell migration, wound healing assay; type: cell-based, human; conditions: 96 hrs treatment, wound healing 12 hrs
Description: (§2) FIG. 18A and FIG. 18B show the migration of MDA-MB-231 and SUM159 cells was assessed by “wound healing” assay. Briefly, 3×10^5 cells were plated in a 6-well plate until confluence in growth medium. […] A “wound” was then created in the cell monolayer. Images were taken at 0 and 12 hrs. Wound-healing capacity was determined with the software Image J. Data were replicated in three independent experiments. Results were normalized to vehicle;
(§3) Cell migration capacity. Cell migration was determined with a “wound healing assay.” Briefly, 3×10^5 cells/well were grown in 6-well plates until confluence. […] To avoid an impact on cell proliferation, low serum medium was changed by regular growth medium in presence of inhibitors for 24 hrs (96 hrs total). A “wound” was then created in the cell monolayer with a 100-4, pipette tip. Images were taken at 0 hrs, and cells were allowed to heal the wound for 12 hrs. Wound-healing capacity was determined with the software Image J. Data were replicated in three independent experiments.

[7] = test system: SUM159; assay: Cell migration, wound healing assay; type: cell-based, human; conditions: 96 hrs treatment, wound healing 12 hrs
Description: as §2, §3

[8] = molecular target: iNOS (Homo sapiens, UniProt P35228); assay: LC-MS/MS quantification of citrulline in xenograft tissue; type: in vivo, mice; conditions: SUM159 xenograft tissue, 24 hrs after completion of treatment
Description: Ratiometric quantification of citrulline SUM159 xenograft tissue LC-MS/MS (Student's t-test). […] Results were normalized to vehicle. Data are presented as mean±SEM. ****p<0.0001, ***p<0.001, **p<0.01, *p<0.05; one-way ANOVA and Bonferroni's post-hoc test;
Metabolite profiling by liquid chromatography-tandem mass spectrometry (LC-MS/MS). MDA-MB-231 and SUM159 xenograft tissue from animal studies (L-NMMA given daily) as well as plasma samples were prepared as previously described. […] LC-MS/MS platform used for metabolite profiling was previously described. Ratiometric quantification of methylarginine (L-NMMA) and citrulline was determined as ion abundance levels in plasma and tumor tissue.

[9] = test system: MDA-MB-231 xenografts; assay: MDA-MB-231 xenografts treated with L-NMMA, docetaxel, combination; type: in vivo, mice
Description: (§4) Animal Studies. Female SCID Beige mice (4-5 weeks old) (Harlan Laboratories, Houston, Tex., USA) were housed under standard laboratory conditions (22° C.; 12 hrs/12 hrs light/dark cycle and free access to food and water). Either MDA-MB-231 or SUM159 cells (3×10^6) were injected in the right mammary fat pad. Once the tumors reached 150-200 mm^3, the mice were randomized into different groups as follows (n=10/group): 1) Vehicle (saline, i.p.), 2) L-NMMA (either 80 mg/kg or 200 mg/kg, i.p., daily), 3) Docetaxel (20 mg/kg), 4) Combo (L-NMMA and docetaxel).
(§5) Self-renewal and tumor-initiating capacity was determined by MSFE and limiting-dilution assays, respectively, in single cells isolated from tumor tissue. Briefly, breast tumor tissue was minced, digested in DMEM:F12 medium with 100 U/mL of collagenase type 3 (Worthington, Lakewood, N.J., USA) and 0.8 U/mL of dispase (Gibco, Carlsbad, Calif., USA) at 37° C. for 45 min. MSFE was assayed in isolated single cells as stated above. The limiting dilution assay (LDA) was performed injecting either […] isolated cells from tumor tissue in the mammary fat pad of SCID Beige mice (n=12/group). Flow cytometric analysis of CD44^+/CD24^−/low cell population was assayed using published methods.
The role of L-NMMA was then investigated, either alone or in combination with docetaxel in a different TNBC mouse model. Docetaxel (20 mg/kg at days 0 and 21) and 200 mg/kg L-NMMA (daily) were given to MDA-MB-231 xenograft-bearing mice for 31 days.

[10] = test system: SUM159 xenografts; assay: SUM159 xenografts treated with L-NMMA, docetaxel, combination; type: in vivo, mice
Description: as §4, §5
To answer this question, daily injections of 80 mg/kg L-NMMA were first given to SUM159 xenograft-bearing mice alone or in combination with docetaxel (20 mg/kg). […] The inventor next analyzed the impact on CSC self-renewal by the MSFE assay.

[11] = test system: MDA-MB-468; assay: PD-L1 expression in TNBC cell line; type: cell-based, human
[12] = test system: SUM159 cells; assay: Nitric oxide production (nitrate/nitrite fluorometric assay); type: cell-based, human; conditions: nitrate+nitrite in supernatant, up to 24 hrs
Description: Nitric oxide production in SUM159 cells. […] Aliquots of cell culture supernatant were taken at 0, 0.5, 2, 6 and 24 hrs for nitrate+nitrite (total nitric oxide) production with the nitrate/nitrite fluorometric assay kit (Cayman Chemical) following manufacturer's instructions.

[13] = LC-MS/MS quantification of methylarginine in plasma and tumor tissue; type: in vivo, mice
Description: Metabolite profiling by liquid chromatography-tandem mass spectrometry (LC-MS/MS). MDA-MB-231 and SUM159 xenograft tissue from animal studies (L-NMMA given daily) as well as plasma samples were prepared as previously described. L-NMMA (200 mg/kg) was orally administered by gavage to female SCID Beige mice (n=5). Blood was drawn before (baseline, 0 hrs) and after L-NMMA administration (0.5, 2, 12, 24 hrs). LC-MS/MS platform used for metabolite profiling was previously described. Ratiometric quantification of methylarginine (L-NMMA) and citrulline was determined as ion abundance levels in plasma and tumor tissue.

## [H]/N=C(/NC)NCCC[C@H](N)C(=O)O [L-NMMA, N^G-monomethyl-L-arginine]
[1]
  PD-L1 expression: increase the PD-L1 expression
[2]; in vivo
  tolerability: well tolerated with few AEs other than transient (minutes) reversible hypertension
[2]; myocardial infarction complicated by refractory cardiogenic shock
  mortality: no effect on mortality
[3]; 12 mg/kg
  time to normalization of blood pressure upon ceasing the infusion: less than 5 min
  transient increase in systolic blood pressure: up to 25 mm Hg
[3]; 3, 6, and 12 mg/kg prior to infusion of IL-2, n=3 per cohort
  safety of bolus injections: safe
[3]; 3 and 6 mg/kg
  blood pressure: remained unchanged
  clinically apparent side effects: did not induce clinically apparent side effects
[3]; human, in vivo
  hematologic, liver, or renal abnormalities: not associated with any hematologic, liver, or renal abnormalities
After the last injection of L-NMMA
  duration of elevation in BP: transient and disappeared 24 hrs after the last injection
Oral L-NMMA 200 mg/kg, basal levels 120 mmHg
  mean systolic pressure: 147 mm Hg
[4]
  proliferation: anti-proliferative activity
[5]
  proliferation: anti-proliferative activity
[6]; micromolar range
  migration: not consistent and less effective
[6]; millimolar range
  migration: reduction in migration capacity
[7]; micromolar range
  migration: not consistent and less effective
[7]; millimolar range
  migration: reduction in migration capacity
[8]
  conversion of L-arginine to L-citrulline and NO by iNOS: inhibits the conversion of L-arginine to L-citrulline and NO by iNOS
[9]; 5 weeks with 5×10^4 cells, vehicle 12/12
  limiting dilution assay, tumors: 1/12
[9]; L-NMMA 200 mg/kg daily, docetaxel 20 mg/kg days 0 and 21, 31 days
  tumor growth: reduced tumor growth
[9]; after six weeks, vehicle 6/12
  limiting dilution assay, tumors: 3/12
[9]; compared to vehicle and chemotherapy alone groups
  primary MS of cells isolated from tumor tissue: less
[9]; mouse, in vivo
  proliferation rate by immunohistochemistry (Ki67): lower proliferation rate
  secondary MS of cells isolated from tumor tissue: reduce secondary MS
[10]; 7 weeks with 5×10^4 cells, vehicle 12/12
  limiting dilution assay, tumors: 4/12
[10]; L-NMMA 80 mg/kg daily, alone or with docetaxel 20 mg/kg, after 10 days
  tumor growth: no differential effect
[10]; L-NMMA daily dose increased to 200 mg/kg, alone or with docetaxel
  tumor growth: efficiently blocked
[10]; mouse, in vivo
  tumor cell proliferation by immunohistochemistry (Ki67): Higher proliferating rate in vehicle and chemotherapy groups compared to L-NMMA and combination groups
[10]; week nine with 2×10^4 cells, vehicle 7/12
  limiting dilution assay, tumors: 0/12
[11]
  PD-L1 expression: increase the PD-L1 expression
[12]
  total NO production: decrease in total NO production
[13]; 200 mg/kg oral gavage, 0.5, 2, 12, 24 hrs
  L-NMMA plasma levels: cleared rapidly
[13]; 24 hrs after completion of treatment
  L-NMMA in tumor tissue: accumulates in the tumor tissue
